Source: patent US20230092005A1, “COMPOSITIONS AND METHODS FOR TREATING CANCER AND TUMOR” (OBLATO, INC., priority 2020, published 2023)

System: human A549 lung cancer xenografts
Assay: Anti-cancer efficacy in nude mice carrying human A549 lung cancer xenografts (tumor volume, tumor weight, growth inhibition rate)
Type: in vivo, BALB/c Nude mouse
Settings: for Tumor weights (mean): tumors weighed at day 29; for Tumor growth inhibition rate (IR): IR=(1-T/C)x100 from mean tumor weights, day 29
Description: The anti-cancer efficacy of OKN-007 was assessed after oral administration in nude mice carrying human A549 lung cancer xenografts implanted subcutaneously in the flank. Human lung cancer cell line, A549 was used. […] The frozen cells were thawed in a water bath. Cells were placed in a tube containing the medium and centrifuged (1,000 rpm, 5 minutes) to discard the supernatant. After re-suspending with the culture medium, cells were placed in a cell culture flask and incubated in a 5% CO2 incubator at 37° C. Cells were sub-cultured at a ratio of 1:5 when grown with confluency of 70-80% in the culture container. Cells cultured on the day of cell line transplantation were centrifuged (1,000 rpm, 5 minutes) to discard the supernatant and to make cell suspension with D-PB S. Then, the cell suspension was mixed with Matrigel at a ratio of 1:1 (5×10^7 cells/mL). BALB/c Nude mouse, [NT]-Foxnlnu/CrlOri, SPF was used. Sex, number, age, and body weight range of animals at receipt: The mice (65 mice) were male, 5 weeks old, and had about 14.5-19.6 g weight at the receipt. Cell transplantation: After the quarantine-acclimation period, the body weight measurement and cell transplantation in healthy animals were performed. […] Prepared cell (1×10^7 cells/0.2 mL) suspension was injected subcutaneously into the right flank with disposable syringes. […] Group assignment: After transplanting cells, each tumor size was monitored for 65 animals. When tumor volume reached within 87-112 mm^3, 50 animals were assigned to the respective groups with an average tumor volume of about 99 mm^3. Based on the tumor volume, animals were selected and randomly distributed into 5 groups (10 animals/group). Dosing Route: Oral administration. The route of administration was oral because the clinical application of the test substance is oral. Method and frequency of administration: For negative control and test substance, oral administration was performed once a day for 4 weeks for a total of 28 times using a disposable syringe. For positive control, intraperitoneal administration was performed once a week for 4 weeks for a total of 4 times using a disposable syringe. Dosing Route: The dose levels of the test substance were selected at 150, 300, and 600 mg/kg. The dose level of the positive substance was selected at 2 mg/kg. The dose volume was selected at 10 mL/kg for all groups, and the individual dose was calculated based on the bodyweight of animals just prior to dosing. Measurement of tumor volume: The largest diameter (a) and the smallest diameter (b) of each tumor were measured using calipers twice a week during the observation period. The tumor volume (TV) was calculated twice a week according to the following formula: TV (mm^3)=(a (mm)×b^2 (mm^2))/2. The volume of a tumor before administration to each animal was set to the value measured at the time of group assignment. Tumor removal and measurement of body weight: After the observation period, animals were anesthetized by inhalation of isoflurane. After the tumor was extracted, the weight of the removed tumor was recorded. The tumor growth inhibition rate (IR) was calculated using the following formula: IR (%)=(1-T/C)×100, where T is a mean tumor weight in the test substance group, and positive substance group, and C is a mean tumor weight in the negative control group.

CC(C)(C)/[N+]([O-])=C/c1ccc(S(=O)(=O)O)cc1S(=O)(=O)O [OKN-007, Disodium 4-[(Z)-[tert-butyl(oxido)azaniumylidene]methyl]benzene-1,3-disulfonate]
Tumor weights (mean) (G2, 150 mg/kg P.O. once a day for 4 weeks): 0.47 g | Tumor volume (mean) (G2, 150 mg/kg P.O. once a day, day 1 (before administration)): 99 mm^3 | Tumor volume (mean) (G2, 150 mg/kg P.O. once a day, day 5 after administration): 152 mm^3 | Tumor volume (mean) (G2, 150 mg/kg P.O. once a day, day 8 after administration): 200 mm^3 | Tumor volume (mean) (G2, 150 mg/kg P.O. once a day, day 12 after administration): 240 mm^3 | Tumor volume (mean) (G2, 150 mg/kg P.O. once a day, day 15 after administration): 243 mm^3 | Tumor volume (mean) (G2, 150 mg/kg P.O. once a day, day 19 after administration): 306 mm^3 | Tumor volume (mean) (G2, 150 mg/kg P.O. once a day, day 22 after administration): 376 mm^3 | Tumor volume (mean) (G2, 150 mg/kg P.O. once a day, day 26 after administration): 466 mm^3 | Tumor volume (mean) (G2, 150 mg/kg P.O. once a day, day 29 after administration): 603 mm^3 | Tumor growth inhibition rate (IR) (G2, 150 mg/kg P.O.): 48.9% | Tumor weights (mean) (G3, 300 mg/kg P.O. once a day for 4 weeks): 0.43 g | Tumor volume (mean) (G3, 300 mg/kg P.O. once a day, day 1 (before administration)): 99 mm^3 | Tumor volume (mean) (G3, 300 mg/kg P.O. once a day, day 5 after administration): 146 mm^3 | Tumor volume (mean) (G3, 300 mg/kg P.O. once a day, day 8 after administration): 172 mm^3 | Tumor volume (mean) (G3, 300 mg/kg P.O. once a day, day 12 after administration): 182 mm^3 | Tumor volume (mean) (G3, 300 mg/kg P.O. once a day, day 15 after administration): 212 mm^3 | Tumor volume (mean) (G3, 300 mg/kg P.O. once a day, day 19 after administration): 254 mm^3 | Tumor volume (mean) (G3, 300 mg/kg P.O. once a day, day 22 after administration): 310 mm^3 | Tumor volume (mean) (G3, 300 mg/kg P.O. once a day, day 26 after administration): 390 mm^3 | Tumor volume (mean) (G3, 300 mg/kg P.O. once a day, day 29 after administration): 460 mm^3 | Tumor growth inhibition rate (IR) (G3, 300 mg/kg P.O.): 53.3% | Tumor growth inhibition rate (IR) (G3, 300 mg/kg P.O., listed as test substance): 53.5% | Tumor weights (mean) (G4, 600 mg/kg P.O. once a day for 4 weeks): 0.38 g | Tumor volume (mean) (G4, 600 mg/kg P.O. once a day, day 1 (before administration)): 99 mm^3 | Tumor volume (mean) (G4, 600 mg/kg P.O. once a day, day 5 after administration): 149 mm^3 | Tumor volume (mean) (G4, 600 mg/kg P.O. once a day, day 8 after administration): 176 mm^3 | Tumor volume (mean) (G4, 600 mg/kg P.O. once a day, day 12 after administration): 179 mm^3 | Tumor volume (mean) (G4, 600 mg/kg P.O. once a day, day 15 after administration): 209 mm^3 | Tumor volume (mean) (G4, 600 mg/kg P.O. once a day, day 19 after administration): 249 mm^3 | Tumor volume (mean) (G4, 600 mg/kg P.O. once a day, day 22 after administration): 288 mm^3 | Tumor volume (mean) (G4, 600 mg/kg P.O. once a day, day 26 after administration): 331 mm^3 | Tumor volume (mean) (G4, 600 mg/kg P.O. once a day, day 29 after administration): 407 mm^3 | Tumor growth inhibition rate (IR) (G4, 600 mg/kg P.O.): 58.7%
